In patent US8063225B2, “Tricyclic compound derivatives useful in the treatment of neoplastic diseases, inflammatory disorders and immunomodulatory disorders” (Chembridge Corporation, priority 2006, dated 2011):

Key:
IGF1R tyrosine kinase = target: T1, IGF1R tyrosine kinase (Homo sapiens, UniProt P08069); assay: IGF1R tyrosine kinase assay (Kinase-Glo ATP depletion or PT66/PT100 AlphaScreen); details: biochemical tyrosine kinase assay
T1 construct: 6×His- or GST-tagged kinase domain fragments of the corresponding RTKs expressed in baculovirus system; host or cells: baculovirus system
Method in brief: (§1)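 Kinase-Glo format: baculovirus-expressed tagged kinase domain, poly(Glu-Tyr), 10 μM ATP, pH 7.5 Tris, MgCl2/MnCl2, DTT; 60 min at 37° C; remaining ATP by luciferase luminescence. Other kinases run identically, enzyme titrated to ≤30% ATP consumption. IC50 by non-linear regression, quadruplicates.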

InsR = target: T2, InsR (Homo sapiens, UniProt P06213); assay: Tyrosine kinase assay (Kinase-Glo or AlphaScreen), InsR; details: biochemical tyrosine kinase assay
T2 construct: 6×His- or GST-tagged kinase domain fragments of the corresponding RTKs expressed in baculovirus system; host or cells: baculovirus system
Method in brief: as §1

Alk = target: T3, Alk (Homo sapiens, UniProt Q9UM73); assay: Tyrosine kinase assay (Kinase-Glo or AlphaScreen), Alk; details: biochemical tyrosine kinase assay
T3 construct: 6×His- or GST-tagged kinase domain fragments of the corresponding RTKs expressed in baculovirus system; host or cells: baculovirus system
Method in brief: as §1

Jak2 = target: T4, Jak2 (Homo sapiens, UniProt O60674); assay: Tyrosine kinase assay (Kinase-Glo or AlphaScreen), Jak2; details: biochemical tyrosine kinase assay
T4 construct: 6×His- or GST-tagged kinase domain fragments of the corresponding RTKs expressed in baculovirus system; host or cells: baculovirus system
Method in brief: as §1

H929 (multiple myeloma) = assay: Cell proliferation inhibition, Cell Titer-Glo, H929; assay type: cell-based; details: Homo sapiens, NCI-H929; cell proliferation assay, H929 cells
Description: IGF1R and other tyrosine kinase inhibitors can inhibit the proliferation of certain cancer cell lines indicating their possible therapeutic utility for treating the corresponding cancer types. Cancer cell lines of interest and control normal lines, including CHO, HEK293, BA/F3, MM1, H929, COLO205, PC3, DU145, MCF7, Panc1, ACHN, Hep G2, H460, K562, TT, U87-G, CAOV-3, SK-MEL5, Karpas 299, are plated in white, clear-bottomed 384-well cell culture plates at 2500-5000 cells per well and supplied with dilutions of tested compounds After a desired period of time (typically 3 days), the number of viable cells is quantitated by using Cell Titer-Glo Luminescent Cell Viability Assay (Promega), a cell proliferation assay system based on detection of total amount of ATP present as a measure of cell metabolic activity. The plated cells are mixed with the Cell Titer-Glo developing reagent and counted in a luminescence multiwell plate reader according to the standard manufacturer's protocol to generate IC50 curves for cell proliferation inhibition.
IGF1R and other tyrosine kinase inhibitors can inhibit the proliferation of certain cancer cell lines indicating their possible therapeutic utility for treating the corresponding cancer types. Cancer cell lines of interest and control normal lines, including CHO, HEK293, BA/F3, COLO205, PC3, DU145, MCF7, Panc1, ACHN, Hep G2, H460, K562, TT, U87-MG, CAOV-3, SK-MEL5, Karpas 299 and human multiple myeloma cell lines H929, MM1s, MM1r, UTMC2, CPM2, KMS11, My5, KMS12PE, My7, JJN3, KMS18, U266, SKMM2, RPMI-8226 are plated in white, clear-bottomed 384-well cell culture plates at 2500-5000 cells per well and supplied with dilutions of tested compounds After a desired period of time (typically 3 days), the number of viable cells is quantitated by using Cell Titer-Glo Luminescent Cell Viability Assay (Promega), a cell proliferation assay system based on detection of total amount of ATP present as a measure of cell metabolic activity. The plated cells are mixed with the Cell Titer-Glo developing reagent and counted in a luminescence multiwell plate reader according to the standard manufacturer's protocol to generate IC50 curves for cell proliferation inhibition. Results are typically reported as percent of growth (% viability =(OD72h(compound)−ODday0))/(OD72h(no compound)−ODday0). Alternatively, viable cells are quantitated by using the conventional colorimetric MTT assay. The MTT assay is based on the cleavage of the yellow tetrazolium salt MTT to purple formazan crystal by metabolic active cells. The formazan is then solubilized, and the concentration determined by optical density at 570 nm. The cells plated and incubated with a compound as described above are supplemented with the solution of MTT and incubated for 2-3 hours. The growth medium is removed and dimethyl sulfoxide is added into each well to dissolve the formazan. The absorbance is measured on an ELISA plate reader with a test wavelength of 570 nm and a background subtraction wavelength of 630 nm to obtain sample signal (OD570-OD630). […] The results are reported in terms of IC50 value for a particular compound and a cell line in the standard 3-day proliferation assay using Cell Titer-Glo. […] The results are reported in terms of IC50 value for a particular compound and a cell line in the standard 3-day proliferation assay using MTT assay.

Ba/F3 = assay: Cell proliferation inhibition, Cell Titer-Glo, Ba/F3; assay type: cell-based; details: Mus musculus, BaF3; cell proliferation assay, Ba/F3 cells
Method in brief: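 This standard 3-day proliferation assay used Ba/F3 cells plated in 384-well white plates with clear bottoms at 2500-5000 cells per well and treated with compound dilutions. Viable cell number was determined by mixing in Cell Titer-Glo developing reagent according to the manufacturer's protocol and counting luminescence. Percent viability relative to day 0 and untreated wells produced IC50 curves.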

Karpas-299 = assay: Cell proliferation inhibition, Cell Titer-Glo, Karpas-299; assay type: cell-based; details: Homo sapiens; cell proliferation assay, Karpas-299 cells
Method in brief: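 In this standard 3-day proliferation assay, Karpas 299 cells plated at 2500-5000 cells per well in 384-well white, clear-bottomed plates were treated with compound dilutions. Cell Titer-Glo developing reagent was added following the manufacturer's protocol, luminescence reflecting ATP content was read on a multiwell plate reader, and IC50 curves were generated.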

K562 = assay: Cell proliferation inhibition, Cell Titer-Glo, K562; assay type: cell-based; details: Homo sapiens; cell proliferation assay, K562 cells
Method in brief: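 Proliferation inhibition in human K562 cells was assessed in a standard 3-day assay. Cells (2500-5000 per well) in 384-well white, clear-bottomed plates received serial compound dilutions, then Cell Titer-Glo reagent was added per the manufacturer's protocol. Luminescence reflecting ATP content of metabolically active cells was counted in a multiwell reader, and IC50 curves were generated.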

T3 sequence (Q9UM73 1116-1392 limits assumed, species assumed): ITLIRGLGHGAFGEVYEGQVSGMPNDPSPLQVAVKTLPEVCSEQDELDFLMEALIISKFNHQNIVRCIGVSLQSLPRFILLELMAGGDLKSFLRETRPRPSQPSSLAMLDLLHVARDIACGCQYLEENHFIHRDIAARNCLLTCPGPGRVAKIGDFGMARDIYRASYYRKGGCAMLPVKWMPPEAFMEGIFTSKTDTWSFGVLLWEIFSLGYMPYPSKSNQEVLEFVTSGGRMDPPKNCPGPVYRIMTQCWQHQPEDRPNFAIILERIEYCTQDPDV
T2 sequence (P06213 1023-1298 limits assumed, species assumed): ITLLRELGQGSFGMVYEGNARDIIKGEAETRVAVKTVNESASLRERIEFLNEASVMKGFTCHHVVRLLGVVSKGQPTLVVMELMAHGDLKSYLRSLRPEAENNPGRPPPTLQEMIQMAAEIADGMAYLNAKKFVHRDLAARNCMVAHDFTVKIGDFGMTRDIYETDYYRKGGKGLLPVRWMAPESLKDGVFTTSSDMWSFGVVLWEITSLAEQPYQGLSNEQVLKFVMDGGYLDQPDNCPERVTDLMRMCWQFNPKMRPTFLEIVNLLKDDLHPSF
T1 sequence (P08069 999-1274 limits assumed): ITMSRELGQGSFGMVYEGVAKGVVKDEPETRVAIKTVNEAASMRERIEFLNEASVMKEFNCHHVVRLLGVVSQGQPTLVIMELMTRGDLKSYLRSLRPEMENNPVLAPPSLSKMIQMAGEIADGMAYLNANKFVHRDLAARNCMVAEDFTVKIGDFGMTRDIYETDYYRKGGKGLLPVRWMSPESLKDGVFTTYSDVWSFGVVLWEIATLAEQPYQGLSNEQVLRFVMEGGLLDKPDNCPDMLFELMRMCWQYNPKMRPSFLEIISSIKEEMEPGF
T4 sequence (O60674 849-1124 limits assumed, species assumed): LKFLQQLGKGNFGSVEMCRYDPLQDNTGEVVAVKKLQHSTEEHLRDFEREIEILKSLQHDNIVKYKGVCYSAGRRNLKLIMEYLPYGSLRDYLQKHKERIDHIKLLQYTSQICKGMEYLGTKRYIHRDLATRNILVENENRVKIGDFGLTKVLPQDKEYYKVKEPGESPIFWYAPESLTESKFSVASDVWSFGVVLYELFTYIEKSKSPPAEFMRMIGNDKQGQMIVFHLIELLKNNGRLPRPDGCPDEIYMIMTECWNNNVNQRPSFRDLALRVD

IC50 (IGF1R tyrosine kinase) [µM] | IC50 (InsR) [µM] | IC50 (Alk) [µM] | IC50 (Jak2) [µM] | IC50 (H929 (multiple myeloma)) [µM] | IC50 (Ba/F3) [µM] | IC50 (Karpas-299) [µM] | IC50 (K562) [µM] | Compound
0.5 to 5 | < 0.5 | 5 to 15 | 0.5 to 5 | > 15 | > 15 | > 15 | > 15 | Cc1ccc(OC[C@H](O)CNc2cc[nH]c(=O)c2-c2nc3c(C)c4c(cc3[nH]2)C(=O)N(C2CCN(C)CC2)C4=O)c(C)c1Cl [compound 137]
< 0.5 | 0.5 to 5 | 5 to 15 | 0.5 to 5 | 5 to 15 | 0.5 to 5 | 0.5 to 5 | 5 to 15 | Cc1ccc(OC[C@H](O)CNc2cc[nH]c(=O)c2-c2nc3cc4c(cc3[nH]2)C(=O)N(C2CCN(CCN(C)C)CC2)C4=O)c(C)c1 [compound 126]
< 0.5 | 0.5 to 5 | 0.5 to 5 | 0.5 to 5 | > 15 | > 15 | > 15 | > 15 | O=C1c2cc3nc(-c4c(NC[C@@H](O)COc5c(F)ccc(Cl)c5F)cc[nH]c4=O)[nH]c3cc2C(=O)N1C1CCN(CCCO)CC1 [compound 136]
< 0.5 | < 0.5 | 0.5 to 5 | 0.5 to 5 | 5 to 15 | 5 to 15 | 5 to 15 | 5 to 15 | Cc1ccc(OC[C@H](O)CNc2cc[nH]c(=O)c2-c2nc3cc4c(cc3[nH]2)C(=O)N(C2CCN(CCCO)CC2)C4=O)c(C)c1 [compound 129]
< 0.5 | 0.5 to 5 | 0.5 to 5 | 0.5 to 5 | > 15 | > 15 | > 15 | > 15 | O=C1c2cc3nc(-c4c(NC[C@@H](O)COc5c(F)ccc(Cl)c5F)cc[nH]c4=O)[nH]c3cc2C(=O)N1C1CCN(CCO)CC1 [compound 125]
< 0.5 | 0.5 to 5 | 0.5 to 5 | 0.5 to 5 | > 15 | > 15 | > 15 | > 15 | Cc1c(Cl)cccc1OC[C@H](O)CNc1cc[nH]c(=O)c1-c1nc2cc3c(cc2[nH]1)C(=O)N(C1CCN(CCN(C)C)CC1)C3=O [compound 127]

More lines, now with the values behind:

Compound | IC50 (IGF1R tyrosine kinase) [µM] | IC50 (InsR) [µM] | IC50 (Alk) [µM] | IC50 (Jak2) [µM] | IC50 (H929 (multiple myeloma)) [µM] | IC50 (Ba/F3) [µM] | IC50 (Karpas-299) [µM] | IC50 (K562) [µM]
CN1CCC(N2C(=O)c3cc4nc(-c5c(NCC(O)COc6cccc(Cl)c6)cc[nH]c5=O)[nH]c4cc3C2=O)CC1 (centres unmarked) [compound 38] | 0.5 to 5 | 0.5 to 5 | 0.5 to 5 | 0.5 to 5 | 0.5 to 5 | > 15 | > 15 | 5 to 15
CN1CCC(N2C(=O)c3cc4nc(-c5c(N[C@@H](CO)Cc6c[nH]cn6)cc[nH]c5=O)[nH]c4cc3C2=O)CC1 [compound 3] | 0.5 to 5 | 0.5 to 5 | 5 to 15 | > 15 | 5 to 15 | > 15 | 5 to 15 | 5 to 15
COCCN1C(=O)c2cc3nc(-c4c(NC[C@@H](O)c5cccc(Cl)c5)cc[nH]c4=O)[nH]c3cc2C1=O [compound 36] | > 15 | > 15 | > 15 | > 15 | 0.5 to 5 | > 15 | > 15 | > 15
Cc1c(Cl)cccc1OC[C@H](O)CNc1cc[nH]c(=O)c1-c1nc2cc3c(cc2[nH]1)C(=O)N(CC(C)(C)CN(C)C)C3=O [compound 117] | < 0.5 | < 0.5 | 5 to 15 | 0.5 to 5 | > 15 | > 15 | 5 to 15 | > 15
Cc1ccc(OC[C@H](O)CNc2cc[nH]c(=O)c2-c2nc3cc4c(cc3[nH]2)C(=O)N(CC(C)(C)CN(C)C)C4=O)c(C)c1 [compound 116] | < 0.5 | < 0.5 | 5 to 15 | 0.5 to 5 | > 15 | > 15 | 5 to 15 | > 15
CN1CCC(N2C(=O)c3cc4nc(-c5c(NC[C@@H](O)COc6ccc7c8c6CCCN8CCC7)cc[nH]c5=O)[nH]c4cc3C2=O)CC1 [compound 86] | 0.5 to 5 | 5 to 15 | 0.5 to 5 | 0.5 to 5 | > 15 | > 15 | 5 to 15 | 5 to 15
Cc1c(Cl)cccc1OC[C@H](O)CNc1cc[nH]c(=O)c1-c1nc2cc3c(cc2[nH]1)C(=O)N(C1CCN(CCO)CC1)C3=O [compound 124] | 0.5 to 5 | 0.5 to 5 | 0.5 to 5 | 0.5 to 5 | > 15 | > 15 | 5 to 15 | > 15
COC[C@@H](C)N1C(=O)c2cc3nc(-c4c(NC[C@@H](O)c5cccc(Cl)c5)cc[nH]c4=O)[nH]c3cc2C1=O [compound 30] | > 15 | > 15 | > 15 | > 15 | > 15 | > 15 | > 15 | > 15
Cc1ccc(OC[C@H](O)CNc2cc[nH]c(=O)c2-c2nc3cc4c(cc3[nH]2)C(=O)N(C2CCN(CCO)CC2)C4=O)c(C)c1 [compound 123] | < 0.5 | 0.5 to 5 | 0.5 to 5 | 0.5 to 5 | > 15 | > 15 | > 15 | > 15
COc1ccc(OCC(O)CNc2cc[nH]c(=O)c2-c2nc3cc4c(cc3[nH]2)C(=O)N(C2CCN(C)CC2)C4=O)cc1 (centres unmarked) [compound 42] | < 0.5 | 0.5 to 5 | 5 to 15 | 5 to 15 | 5 to 15 | > 15 | > 15 | 5 to 15
